# ChEMBL document CHEMBL1129772, “Synthesis and radical scavenging activity of 3,3-dialkyl-3,4-dihydro-isoquinoline 2-oxides” (Bioorg Med Chem Lett, 1996)
# Tested on: Liposome
# Assay: In vitro inhibition of peroxyl radical-dependent oxidation of liposomes from soybean phosphatidylcholine by ethanol injection.
# Format: functional, Glycine max
row,IC50 [µM],Structure (SMILES)
1,18,CC1(C)Cc2cc(Cl)cc(Cl)c2C=[N+]1[O-]
2,8,[O-][N+]1=Cc2ccccc2CC12CCCCC2
3,67,COc1ccc2c(c1)C=[N+]([O-])C(C)(C)C2
4,200,CC1(C)Cc2ccccc2C=[N+]1[O-]
5,130,COc1cc2c(cc1OC)CC(C)(C)[N+]([O-])=C2
6,160,CC1(C)Cc2cc(F)ccc2C=[N+]1[O-]
7,21,[O-][N+]1=Cc2ccccc2CC12CCCC2
8,24,CC1(C)Cc2c(Cl)cccc2C=[N+]1[O-]
9,11,COc1ccc2c(c1)CC1(CCCCC1)[N+]([O-])=C2
10,2170,CC(C)(C)/[N+]([O-])=C/c1ccccc1
11,38,COc1cccc2c1C=[N+]([O-])C1(CCCCC1)C2
12,55,CC1(C)Cc2cc(Cl)ccc2C=[N+]1[O-]
13,45,CC1(C)Cc2cccc(Cl)c2C=[N+]1[O-]
14,41,CC1(C)Cc2ccc(Cl)cc2C=[N+]1[O-]
15,67,CC1(C)Cc2ccc(F)cc2C=[N+]1[O-]
16,69,COc1ccc2c(c1)CC(C)(C)[N+]([O-])=C2
17,3,[O-][N+]1=Cc2cc(Cl)ccc2CC12CCCCC2
18,56,COc1ccc(F)c2c1CC(C)(C)[N+]([O-])=C2
